{"source": "paper PMC6983366", "about": "“A de novo peroxidase is also a promiscuous yet stereoselective carbene transferase” (Proceedings of the National Academy of Sciences of the …, 2020)", "key": {"C45": {"tested_on": "T1, C45", "T1 construct": "de novo 4-helix bundle with covalently attached heme C", "assay": "stopped-flow UV/visible kinetics of heme carbene formation", "type": "biochemical, synthetic construct", "details": "ferrous protein, anaerobic, pH 8.6, 100 mM KCl, 20 mM CHES, 5 °C, ethanol present; no acceptor; single-turnover metallocarbenoid formation; covalent heme adduct; read-out: K1 (pseudo-Michaelis constant)"}, "Rma-TDE": {"target": "T2, Rma-TDE (Rhodothermus marinus, UniProt B3FQS5, V103T/M128D/M131E)", "T2 construct": "gene cytC; engineered triple variant TDE of c-type cytochrome; synthetic gene, periplasmic expression from pSHT in E. coli T7 Express", "T2 sequence (B3FQS5 entry or part of it V103T/M128D/M131E)": "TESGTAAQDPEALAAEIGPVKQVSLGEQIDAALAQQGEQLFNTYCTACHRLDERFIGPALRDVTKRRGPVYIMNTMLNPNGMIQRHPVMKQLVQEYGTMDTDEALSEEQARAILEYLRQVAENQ", "assay": "stopped-flow UV/visible kinetics of heme carbene formation", "type": "biochemical", "details": "read-out: K1 (pseudo-Michaelis constant); ferrous protein, anaerobic, pH 8.6, 100 mM KCl, 20 mM CHES, 5 °C, ethanol present; no acceptor; single-turnover metallocarbenoid formation; covalent heme adduct"}}, "data": [{"smiles": "CCOC(=O)C=[N+]=[N-]", "note": "[EDA]", "values": [{"measurement": "Km", "setting": "C45", "value": 74, "unit": "µM"}, {"measurement": "Km", "setting": "Rma-TDE", "value": 490, "unit": "µM"}]}]}
